# Experimental data as given in patent US20040137455A1, “Diagnosis of cancer or benign tumor using the aberrant expression product of the klk4 gene” (priority 2001, published 2004).
# Tests used:
# [1] = tested on: hK4 intracellular levels in OVCAR-3; experiment: Western blot and densitometry of hK4 intracellular levels in OVCAR-3 cells (oestrogen regulation); format: cell-based, human
# Text: Normal ovary and ovarian tumour samples were obtained at surgery from women who underwent laparotomy for benign and malignant conditions in the Department of Obstetrics and Gynaecology at the Royal Women's Hospitals and Monash Medical Centre. Ethics approval was obtained from the respective institutional Ethics Committees and informed consent was obtained from all patients. Epithelial cells from normal, benign and malignant ovaries were isolated from some of these tissue samples and the primary cultured cells were grown in M199 (Sigma, St. Louis, Mo., USA) and MCDB 105 (Sigma) media supplemented with 10% FCS and 10 ng/mL human epidermal growth factor (Boehringer Mannheim, Germany) (17). The ovarian cancer cell lines, that were used in this study, were derived from late stage serous carcinomas with well (PEO14 and OAW42), moderate (SKOV-3 and OVCAR-3) or poor (JAM, CI-80-13S, PEO1 and PEO4) differentiation. SKOV-3 and OVCAR-3 were from American Type Culture Collection, and the remainder have been described previously (18, 19). These cell lines were grown in RPMI (Life Technologies, Inc., Gaithersburg. MD, USA) supplemented with 10% FCS. For the oestrogen regulation study, OVCAR-3 cells were grown to 50% confluency. […]
# [2] = tested on: K4 protein in the KLE cell line; experiment: Western analysis of K4 protein levels in KLE cells after steroid treatment; format: cell-based, human; conditions: KLE endometrial cancer cell line, 10 nmol/L steroid, 48 h, 200 μg intracellular protein
# Method: The endometrial cancer cell lines, Ishikawa (well differentiated), HEC1A, HEC1B, RL95-2 (moderately differentiated) and KLE (poorly differentiated) and the prostate cancer cell line LNCaP, used for a control, were obtained from the American Type Culture Collection, Rockville, Md. Prostate and kidney control tissue was obtained from Royal Brisbane Hospital and Princess Alexandra Hospital respectively. All cell lines were cultured in DMEM (Life Technologies, Rockville, Md.) with 10% FCS, 50 U/mL Penicillin G and 50 μg/mL Streptomycin (CSL Biosciences, Melbourne, Australia) at 37 C and 5% CO2. The regulation studies were performed in triplicate in the KLE cell line using phenol red and FCS-free media. After 24 h, fresh media was supplemented with 10 nmol/L 17β-estradiol or progesterone, (Sigma Chemical Company, St Louis, Mo.) and the cells were maintained for 48 h with these steroids. In addition, […] progesterone was added to one group of oestrogen-treated cells after 24 h. […] Detection was determined using X-ray film and visualisation of the chemiluminescence signal. Fold changes in the level of signal were assessed using the Hewlett Packard Scan Jet IICX and ImagQuant™ 4.21A software (Molecular Dynamics, Amersham)
Structure (SMILES),"effect on intracellular hK4 levels (densitometry of Western blot) ([1]; OVCAR-3, 100 nM, over 30 hrs)","up-regulation of hK4 intracellular levels ([1]; OVCAR-3 ovarian carcinoma cell line, 100 nM, 8-30 hr, time dependent)",levels of K4 protein elevated compared to the control [2]
"C[C@]12CC[C@@H]3c4ccc(O)cc4CC[C@H]3[C@@H]1CC[C@@H]2O [estradiol, 17β-estradiol]",up-regulation,1.5-4 fold,16 fold
CC(=O)[C@H]1CC[C@H]2[C@@H]3CCC4=CC(=O)CC[C@]4(C)[C@H]3CC[C@]12C [progesterone],–,–,27 fold
